From patent publication US7560466B2, “Methods of treating or preventing autoimmune diseases with 2,4-pyrimidinediamine compounds” (Rigel Pharmaceuticals, Inc., priority 2003, dated 2009)
Like-named read-outs stand apart in the source and are kept apart here.

Test system: cultured human mast cells (CHMC), IgE-induced degranulation
Assay: CHMC low cell density IgE activation: tryptase assay
Type: cell-based
Settings: CHMC low cell density
Experimental: Inhibition of degranulation was measured at both low and high cell density by quantifying the release of the granule specific factors tryptase, histamine and hexosaminidase. Inhibition of release and/or synthesis of lipid mediators was assessed by measuring the release of leukotriene LTC4 and inhibition of release and/or synthesis of cytokines was monitored by quantifying TNF-α, IL-6 and IL-13. Tryptase and hexosaminidase were quantified using fluorogenic substrates as described in their respective examples. […] The protocols of the various assays are provided below.
A second phase is performed to convert the expanded CD34-negative progenitor cells into differentiated mucosal mast cells. These mucosal cultured human mast cells (“CHMC”) are derived from CD34+ cells isolated from umbilical cord blood and treated to form a proliferated population of CD34-negative progenitor cells, as described above. […] Also, the cytokine composition of the medium was modified such that it contained SCF (200 ng/mL) and recombinant human IL-6 (200 ng/mL; Peprotech, Catalog No. 200-06 reconstituted to 100 ug/mL in sterile 10 mM acetic acid) (“CM/SCF/IL-6 medium”).
Pellet CHMC cells (980 rpm, 10 min) and resuspend in pre-warmed MT. Add 65 ul of cells to each 96-well plate. Depending on the degranulation activity for each particular CHMC donor, load 1000-1500 cells/well. Mix four times followed by a 1 hr incubation at 37° C. […] Stimulate cells by adding 25 ul of 6× anti-IgE solution to the appropriate plates. Add 25 ul MT to un-stimulated control wells. Mix twice following addition of the anti-IgE. Incubate at 37° C. for 30 minutes. […] Spin plates at 1000 rpm for 10 min to pellet cells. Transfer 25 ul of supernatant to a 96-well black bottom plate and add 100 ul of freshly diluted tryptase substrate solution to each well. Incubate plates at room temperature for 30 min.
In Table 1, all reported values are IC50s (in μM). […] In Table 1, all reported values are IC50s (in μM).

[1] = 8pt, read-out: LD Tryptase, CHMC, IgE, 8pt
[2] = 3pt, read-out: LD Tryptase, CHMC, IgE, 3pt

| SMILES | IC50 [1] | IC50 [2] |
| --- | --- | --- |
| CC(C)(C)C(=O)NCCCn1ncc2cc(Nc3ncc(F)c(Nc4ccc5c(n4)NC(=O)C(C)(C)O5)n3)ccc21 [Compound 852, N4-(2,2-Dimethyl-3-oxo-4H-5-pyrido[1,4]oxazin-6-yl)-5-fluoro-N2-[1-(3-pivalamidopropyl)indazol-5-yl]-2,4-pyrimidinediamine] | < 10 µM | – |
| CC1(C)Oc2ccc(Nc3nc(Nc4ccc5c(cnn5CCCN5C(=O)CCC5=O)c4)ncc3F)cc2NC1=O [Compound 855, N4-(2,2-Dimethyl-3-oxo-4H-benz[1,4]oxazin-6-yl)-5-fluoro-N2-[1-[3-(N-succinimidopropyl)]indazol-5-yl]-2,4-pyrimidinediamine] | < 10 µM | < 10 µM |
| C[C@@H]1Oc2ccc(Nc3nc(Nc4ccc5c(cnn5CCCN5C(=O)CCC5=O)c4)ncc3F)cc2NC1=O [Compound 856, (S)-5-Fluoro-N4-(2-methyl-3-oxo-2H,4H-benz[1,4]oxazin-6-yl)-N2-[1-[3-(N-succinimidopropyl)]indazol-5-yl]-2,4-pyrimidinediamine] | < 10 µM | < 10 µM |
| CC1(C)Oc2ccc(Nc3nc(Nc4ccc5c(cnn5CCCN5C(=O)CCC5=O)c4)ncc3F)nc2NC1=O [Compound 857, N4-(2,2-Dimethyl-3-oxo-4H-5-pyrid[1,4]oxazin-6-yl)-5-fluoro-N2-[1-[3-(N-succinimidopropyl)]indazol-5-yl]-2,4-pyrimidinediamine] | < 10 µM | < 10 µM |
| CC1(C)Oc2ccc(Nc3nc(Nc4ccc5c(cnn5CCCN5C(=O)CCCC5=O)c4)ncc3F)nc2NC1=O [Compound 862, N4-(2,2-Dimethyl-3-oxo-4H-5-pyrid[1,4]oxazin-6-yl)-N2-[1-[3-(2,6-dioxopiperidino]propyl)indazol-5-yl]-5-fluoro-2,4-pyrimidinediamine] | < 10 µM | < 10 µM |
| CCOCCCn1ncc2cc(Nc3ncc(F)c(Nc4ccc5c(n4)NC(=O)C(C)(C)O5)n3)ccc21 [Compound 875, N4-(2,2-Dimethyl-3-oxo-4H-5-pyrid[1,4]oxazin-6-yl)-N2-[1-(3-ethoxypropyl)indazol-5-yl]-5-fluoro-2,4-pyrimidinediamine] | < 10 µM | < 10 µM |
| Cn1c(=O)[nH]c2cc(Nc3ncc(F)c(Nc4ccc5c(n4)NC(=O)C(C)(C)O5)n3)ccc21 [Compound 908, N4-(2,2-Dimethyl-3-oxo-4H-5-pyrid[1,4]oxazin-6-yl)-N2-(2,3-dihydro-1-methyl-2-oxo-benzimidazol-5-yl)-5-fluoro-2,4-pyrimidinediamine] | < 10 µM | < 10 µM |
| CC1(C)Oc2ccc(Nc3nc(Nc4ccc5oncc5c4)ncc3F)nc2NC1=O [Compound 928, N2-(1,2-Benzisoxazol-5-yl)-N4-(2,2-dimethyl-3-oxo-4H-5-pyrido[1,4]oxazin-6-yl)-5-fluoro-2,4-pyrimidinediamine] | < 10 µM | – |
| CCn1c(C)nc2cc(Nc3ncc(F)c(Nc4ccc5c(n4)NC(=O)C(C)(C)O5)n3)ccc21 [Compound 936, N4-(2,2-Dimethyl-3-oxo-4H-5-pyrido[1,4]oxazin-6-yl)-N2-(1-ethyl-2-methylbenzimidazol-5-yl)-5-fluoro-2,4-pyrimidinediamine] | – | < 10 µM |
| CC1(C)Oc2ccc(Nc3nc(Nc4ccc5c(c4)nc(C(F)(F)F)n5CCCO)ncc3F)nc2NC1=O [Compound 941, N4-(2,2-Dimethyl-3-oxo-4H-5-pyrido[1,4]oxazin-6-yl)-5-fluoro-N2-[1-(3-hydroxypropyl)-2-trifluoromethylbenzimidazol-5-yl]-2,4-pyrimidinediamine] | < 10 µM | < 10 µM |
| C[C@@H]1Oc2ccc(Nc3nc(Nc4ccc5c(c4)nc(N4CCOCC4)n5C)ncc3F)cc2NC1=O [Compound 945, (S)-5-Fluoro-N2-[1-methyl-2-(4-morpholino)benzimidazol-5-yl]-N4-(2-methyl-3-oxo-2H,4H-benz[1,4]oxazin-6-yl)-2,4-pyrimidinediamine] | < 10 µM | < 10 µM |
| Cn1c(N2CCOCC2)nc2cc(Nc3ncc(F)c(Nc4ccc5c(n4)NC(=O)C(C)(C)O5)n3)ccc21 [Compound 946, N4-(2,2-Dimethyl-3-oxo-4H-5-pyrido[1,4]oxazin-6-yl)-5-fluoro-N2-[1-methyl-2-(4-morpholino)benzimidazol-5-yl]-2,4-pyrimidinediamine] | < 10 µM | < 10 µM |
| Cc1nc2cc(Nc3ncc(F)c(Nc4ccc5c(n4)NC(=O)C(C)(C)O5)n3)ccc2n1CCCO [Compound 951, N4-(2,2-Dimethyl-3-oxo-4H-5-pyrido[1,4]oxazin-6-yl)-5-fluoro-N2-[1-(3-hydroxypropyl)-2-methylbenzimidazol-5-yl]-2,4-pyrimidinediamine] | < 10 µM | < 10 µM |
| CC(=O)NCCCn1c(C)nc2cc(Nc3ncc(F)c(Nc4ccc5c(n4)NC(=O)C(C)(C)O5)n3)ccc21 [Compound 953, N2-[1-[3-(N-Acetylamino)propyl]-2-methylbenzimidazol-5-yl]-N4-(2,2-Dimethyl-3-oxo-4H-5-pyrido[1,4]oxazin-6-yl)-5-fluoro-2,4-pyrimidinediamine] | < 10 µM | < 10 µM |
| Cn1c(CN2CCOCC2)nc2cc(Nc3ncc(F)c(Nc4ccc5c(c4)NC(=O)C(C)(C)O5)n3)ccc21 [Compound 956, N4-(2,2-Dimethyl-3-oxo-4H-benz[1,4]oxazin-6-yl)-5-fluoro-N2-[1-methyl-2-(4-morpholinomethyl)benzimidazol-5-yl]-2,4-pyrimidinediamine] | < 10 µM | – |
| C[C@@H]1Oc2ccc(Nc3nc(Nc4ccc5c(c4)nc(CN4CCOCC4)n5C)ncc3F)cc2NC1=O [Compound 957, (S)-5-Fluoro-N2-[1-methyl-2-(4-morpholinomethyl)benzimidazol-5-yl]-N4-(2-methyl-3-oxo-2H,4H-benz[1,4]oxazin-6-yl)--2,4-pyrimidinediamine] | < 10 µM | < 10 µM |
| Cn1c(CN2CCOCC2)nc2cc(Nc3ncc(F)c(Nc4ccc5c(n4)NC(=O)C(C)(C)O5)n3)ccc21 [Compound 958, N4-(2,2-Dimethyl-3-oxo-4H-5-pyrido[1,4]oxazin-6-yl)-5-fluoro-N2-[1-methyl-2-(4-morpholinomethyl)benzimidazol-5-yl]-2,4-pyrimidinediamine] | < 10 µM | – |
| Cc1nc2cc(Nc3ncc(F)c(Nc4ccc5c(n4)NC(=O)C(C)(C)O5)n3)ccc2n1CCCNS(C)(=O)=O [Compound 964, N4-(2,2-Dimethyl-3-oxo-4H-5-pyrido[1,4]oxazin-6-yl)-5-fluoro-N2-[2-methyl-1-[3-(N-methylsulfonylamino)propyl]benzimidazol-5-yl]-2,4-pyrimidinediamine] | < 10 µM | < 10 µM |
| Cn1c(CS(C)(=O)=O)nc2cc(Nc3ncc(F)c(Nc4ccc5c(n4)NC(=O)C(C)(C)O5)n3)ccc21 [Compound 969, N4-(2,2-Dimethyl-3-oxo-4H-5-pyrido[1,4]oxazin-6-yl)-5-fluoro-N2-{1-methyl-2-[(methylsulfonyl)methyl]benzimidazol-5-yl}-2,4-pyrimidinediamine] | < 10 µM | < 10 µM |
| CCN(CC)Cc1nc2cc(Nc3ncc(F)c(Nc4ccc5c(n4)NC(=O)C(C)(C)O5)n3)ccc2n1C [Compound 974, N2-[2-(N,N-Diethylaminomethyl)-1-methylbenzimidazol-5-yl]-N4-(2,2-dimethyl-3-oxo-4H-5-pyrido[1,4]oxazin-6-yl)-5-fluoro-2,4-pyrimidinediamine] | < 10 µM | < 10 µM |
